# Reference: patent US9738902B2, “Modified PYR/PYL receptors activated by ligands” (priority 2013, dated 2017)
# How the values were obtained:
# Type in all cases: cell-based
# PYR1 K59R A160C = biological target: T1, PYR1 K59R A160C (Arabidopsis thaliana, UniProt O49686, A160C/K59R); test: Y2H Pocket Library Screen (HAB1, X-gal)
# T1 construct: expressed in transfected cells; host or cells: S. cerevisiae Y190
# Description: (§1) The set of 475 mutant plasmids were individually transformed into the Y190 yeast two hybrid reporter strain co-transformed with pACT-HAB1, as previously described (Park et al., 2009). The yeast strains generated were arrayed into 96-well plates yielding what we refer to as the “pocket library”. The pocket library strains were spotted onto agar plates containing selective synthetic dextrose (minus Leu & Trp) medium that was supplemented with a single test compound at 100 μM. The pocket library strains were separately tested for responsiveness to the following compounds: dichlobenil, benzothiadiazole, mandipropamid, fludioxonil, and benoxacor. After incubating test plates at 30° C. for two days, colonies were chloroform lysed and stained to reveal β-galactosidase expression levels, using previously described methods (Park et al., 2009). Mutants displaying responsiveness to the test compound, if present, were identified by virtue of X-gal staining and then subjected to subsequent optimization efforts. Using this approach we identified mutations that conferred detectable sensitivity to the compounds tested (see entries labeled “Pocket Library Screens” in Table 1).
# PYR1 K59R E141Y = biological target: T2, PYR1 K59R E141Y (Arabidopsis thaliana, UniProt O49686, E141Y/K59R); test: Y2H Pocket Library Screen (HAB1, X-gal)
# T2 construct: expressed in transfected cells; host or cells: S. cerevisiae Y190 two-hybrid reporter strain
# Description: as §1
# PYR1 K59R E94A = biological target: T3, PYR1 K59R E94A (Arabidopsis thaliana, UniProt O49686, E94A/K59R); test: Y2H Pocket Library Screen (HAB1, X-gal)
# T3 construct: expressed in transfected cells; host or cells: S. cerevisiae Y190 yeast two-hybrid reporter strain
# Description: as §1
# PYR1 K59R E94D = biological target: T4, PYR1 K59R E94D (Arabidopsis thaliana, UniProt O49686, E94D/K59R); test: Y2H Pocket Library Screen (HAB1, X-gal)
# T4 construct: expressed in transfected cells; host or cells: S. cerevisiae Y190 yeast two-hybrid reporter strain
# Description: as §1
# PYR1 K59R E94S = biological target: T5, PYR1 K59R E94S (Arabidopsis thaliana, UniProt O49686, E94S/K59R); test: Y2H Pocket Library Screen (HAB1, X-gal)
# T5 construct: expressed in transfected cells; host or cells: S. cerevisiae Y190 yeast two-hybrid reporter strain
# Description: as §1
# PYR1 K59R F108L = biological target: T6, PYR1 K59R F108L (Arabidopsis thaliana, UniProt O49686, F108L/K59R); test: Y2H Pocket Library Screen (HAB1, X-gal)
# T6 construct: expressed in transfected cells; host or cells: S. cerevisiae Y190 yeast two-hybrid reporter strain
# Description: as §1
# PYR1 K59R F159A = biological target: T7, PYR1 K59R F159A (Arabidopsis thaliana, UniProt O49686, F159A/K59R); test: Y2H Pocket Library Screen (HAB1, X-gal)
# T7 construct: expressed in transfected cells; host or cells: S. cerevisiae Y190 two-hybrid reporter strain
# Description: as §1
# PYR1 K59R F159T = biological target: T8, PYR1 K59R F159T (Arabidopsis thaliana, UniProt O49686, F159T/K59R); test: Y2H Pocket Library Screen (HAB1, X-gal)
# T8 construct: expressed in transfected cells; host or cells: S. cerevisiae Y190
# Description: as §1
# PYR1 K59R F159V = biological target: T9, PYR1 K59R F159V (Arabidopsis thaliana, UniProt O49686, F159V/K59R); test: Y2H Pocket Library Screen (HAB1, X-gal)
# T9 construct: expressed in transfected cells; host or cells: S. cerevisiae Y190
# Description: as §1
# PYR1 K59R L87F = biological target: T10, PYR1 K59R L87F (Arabidopsis thaliana, UniProt O49686, K59R/L87F); test: Y2H Pocket Library Screen (HAB1, X-gal)
# T10 construct: expressed in transfected cells; host or cells: S. cerevisiae Y190 yeast two-hybrid reporter strain
# Description: as §1
# PYR1 K59R L87P = biological target: T11, PYR1 K59R L87P (Arabidopsis thaliana, UniProt O49686, K59R/L87P); test: Y2H Pocket Library Screen (HAB1, X-gal)
# T11 construct: expressed in transfected cells; host or cells: S. cerevisiae Y190 yeast two-hybrid reporter strain
# T11 sequence (O49686 whole entry K59R/L87P): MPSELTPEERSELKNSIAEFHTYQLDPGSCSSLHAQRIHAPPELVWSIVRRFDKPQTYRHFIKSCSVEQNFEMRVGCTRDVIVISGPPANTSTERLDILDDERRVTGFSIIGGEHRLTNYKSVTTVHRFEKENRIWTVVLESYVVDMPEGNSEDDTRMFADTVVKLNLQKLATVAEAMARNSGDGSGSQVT
# T11 sequence (Q9CAJ0 23-511 partner): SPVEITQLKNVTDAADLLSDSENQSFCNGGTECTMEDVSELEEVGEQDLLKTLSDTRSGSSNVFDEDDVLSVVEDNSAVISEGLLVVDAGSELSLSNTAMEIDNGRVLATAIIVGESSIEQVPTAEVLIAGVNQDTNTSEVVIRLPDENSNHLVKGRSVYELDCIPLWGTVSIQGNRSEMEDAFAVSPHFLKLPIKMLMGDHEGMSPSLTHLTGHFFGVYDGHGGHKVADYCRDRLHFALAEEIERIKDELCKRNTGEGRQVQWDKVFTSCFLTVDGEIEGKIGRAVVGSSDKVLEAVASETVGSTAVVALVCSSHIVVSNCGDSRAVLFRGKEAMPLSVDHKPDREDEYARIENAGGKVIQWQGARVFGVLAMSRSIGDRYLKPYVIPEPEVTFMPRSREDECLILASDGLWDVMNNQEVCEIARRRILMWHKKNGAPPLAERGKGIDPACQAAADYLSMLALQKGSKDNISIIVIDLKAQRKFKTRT
# Description: as §1
# PYR1 K59R M158C = biological target: T12, PYR1 K59R M158C (Arabidopsis thaliana, UniProt O49686, K59R/M158C); test: Y2H Pocket Library Screen (HAB1, X-gal)
# T12 construct: expressed in transfected cells; host or cells: S. cerevisiae Y190 two-hybrid reporter strain
# Description: as §1
# PYR1 K59R M158I = biological target: T13, PYR1 K59R M158I (Arabidopsis thaliana, UniProt O49686, K59R/M158I); test: Y2H Pocket Library Screen (HAB1, X-gal)
# T13 construct: expressed in transfected cells; host or cells: S. cerevisiae Y190 two-hybrid reporter strain
# Description: as §1
# PYR1 K59R M158T = biological target: T14, PYR1 K59R M158T (Arabidopsis thaliana, UniProt O49686, K59R/M158T); test: Y2H Pocket Library Screen (HAB1, X-gal)
# T14 construct: expressed in transfected cells; host or cells: S. cerevisiae Y190 two-hybrid reporter strain
# Description: as §1
# PYR1 K59R M158V = biological target: T15, PYR1 K59R M158V (Arabidopsis thaliana, UniProt O49686, K59R/M158V); test: Y2H Pocket Library Screen (HAB1, X-gal)
# T15 construct: expressed in transfected cells; host or cells: S. cerevisiae Y190 two-hybrid reporter strain
# Description: as §1
# PYR1 K59R N167C = biological target: T16, PYR1 K59R N167C (Arabidopsis thaliana, UniProt O49686, K59R/N167C); test: Y2H Pocket Library Screen (HAB1, X-gal)
# T16 construct: expressed in transfected cells; host or cells: S. cerevisiae Y190 two-hybrid reporter strain
# T16 sequence (O49686 whole entry K59R/N167C): as the sequence (O49686 whole entry K59R/L87P) above, with P87L, N167C counted along it
# T16 sequence (Q9CAJ0 23-511 partner): as the sequence (Q9CAJ0 23-511 partner) above
# Description: as §1
# PYR1 K59R N167H = biological target: T17, PYR1 K59R N167H (Arabidopsis thaliana, UniProt O49686, K59R/N167H); test: Y2H Pocket Library Screen (HAB1, X-gal)
# T17 construct: expressed in transfected cells; host or cells: S. cerevisiae Y190 two-hybrid reporter strain
# Description: as §1
# PYR1 K59R N167V = biological target: T18, PYR1 K59R N167V (Arabidopsis thaliana, UniProt O49686, K59R/N167V); test: Y2H Pocket Library Screen (HAB1, X-gal)
# T18 construct: expressed in transfected cells; host or cells: S. cerevisiae Y190 two-hybrid reporter strain
# Description: as §1
# PYR1 K59R S92F = biological target: T19, PYR1 K59R S92F (Arabidopsis thaliana, UniProt O49686, K59R/S92F); test: Y2H Pocket Library Screen (HAB1, X-gal)
# T19 construct: expressed in transfected cells; host or cells: S. cerevisiae Y190 yeast two-hybrid reporter strain
# T19 sequence (O49686 whole entry K59R/S92F): as the sequence (O49686 whole entry K59R/L87P) above, with P87L, S92F counted along it
# T19 sequence (Q9CAJ0 23-511 partner): as the sequence (Q9CAJ0 23-511 partner) above
# Description: as §1
# PYR1 K59R T162W = biological target: T20, PYR1 K59R T162W (Arabidopsis thaliana, UniProt O49686, K59R/T162W); test: Y2H Pocket Library Screen (HAB1, X-gal)
# T20 construct: expressed in transfected cells; host or cells: S. cerevisiae Y190
# T20 sequence (O49686 whole entry K59R/T162W): as the sequence (O49686 whole entry K59R/L87P) above, with P87L, T162W counted along it
# T20 sequence (Q9CAJ0 23-511, further chain): as the sequence (Q9CAJ0 23-511 partner) above
# Description: as §1
# PYR1 K59R V164K = biological target: T21, PYR1 K59R V164K (Arabidopsis thaliana, UniProt O49686, K59R/V164K); test: Y2H Pocket Library Screen (HAB1, X-gal)
# T21 construct: expressed in transfected cells; host or cells: S. cerevisiae Y190
# Description: as §1
# PYR1 K59R V81I = biological target: T22, PYR1 K59R V81I (Arabidopsis thaliana, UniProt O49686, K59R/V81I); test: Y2H Pocket Library Screen (HAB1, X-gal)
# T22 construct: expressed in transfected cells; host or cells: S. cerevisiae Y190 yeast two-hybrid reporter strain
# Description: as §1
# PYR1 K59R V81Y = biological target: T23, PYR1 K59R V81Y (Arabidopsis thaliana, UniProt O49686, K59R/V81Y); test: Y2H Pocket Library Screen (HAB1, X-gal)
# T23 construct: expressed in transfected cells; host or cells: S. cerevisiae Y190 yeast two-hybrid reporter strain
# T23 sequence (O49686 whole entry K59R/V81Y): as the sequence (O49686 whole entry K59R/L87P) above, with V81Y, P87L counted along it
# T23 sequence (Q9CAJ0 23-511 partner): as the sequence (Q9CAJ0 23-511 partner) above
# Description: as §1
# PYR1 K59R V83L = biological target: T24, PYR1 K59R V83L (Arabidopsis thaliana, UniProt O49686, K59R/V83L); test: Y2H Pocket Library Screen (HAB1, X-gal)
# T24 construct: expressed in transfected cells; host or cells: S. cerevisiae Y190 yeast two-hybrid reporter strain
# Description: as §1
# PYR1 K59R Y120A = biological target: T25, PYR1 K59R Y120A (Arabidopsis thaliana, UniProt O49686, K59R/Y120A); test: Y2H Pocket Library Screen (HAB1, X-gal)
# T25 construct: expressed in transfected cells; host or cells: S. cerevisiae Y190 two-hybrid reporter strain
# Description: as §1
# PYR1 K59R Y120F = biological target: T26, PYR1 K59R Y120F (Arabidopsis thaliana, UniProt O49686, K59R/Y120F); test: Y2H Pocket Library Screen (HAB1, X-gal)
# T26 construct: expressed in transfected cells; host or cells: S. cerevisiae Y190 two-hybrid reporter strain
# Description: as §1
# PYR1 K59R Y120G = biological target: T27, PYR1 K59R Y120G (Arabidopsis thaliana, UniProt O49686, K59R/Y120G); test: Y2H Pocket Library Screen (HAB1, X-gal)
# T27 construct: expressed in transfected cells; host or cells: S. cerevisiae Y190 two-hybrid reporter strain
# Description: as §1
# PYR1 K59R Y120M = biological target: T28, PYR1 K59R Y120M (Arabidopsis thaliana, UniProt O49686, K59R/Y120M); test: Y2H Pocket Library Screen (HAB1, X-gal)
# T28 construct: expressed in transfected cells; host or cells: S. cerevisiae Y190 two-hybrid reporter strain
# Description: as §1
# PYR1 K59R E94A N167C = biological target: T29, PYR1 K59R E94A N167C (Arabidopsis thaliana, UniProt O49686, E94A/K59R/N167C); test: Y2H Combinatorial Mutagenesis Screen I (HAB1, X-gal)
# T29 construct: expressed in transfected cells; host or cells: S. cerevisiae Y190 two-hybrid reporter strain
# From the text: (§2) This screening approach yielded mutants at ligand contacting residues that alter sensitivity to specific ligands. We reasoned that receptor sensitivity could be improved by systematically constructing combinations of the best mutant variants identified in the first round of screening. To test this, we constructed mutant combinations using the strongest mutations identified for mandipropamid, benzothiadiazole, benoxacor or fludioxonil sensitivity. The mutations selected for combinatorial mutagenesis are listed in bold type in Table 1; The mutant combinations were constructed using the QuickChange Lightning Multi Site-Directed PCR Mutagenesis kit (Agilent, USA) using pBD-PYR1^K59R template DNA and mutagenic primers, essentially as previously described (Mosquna et al., 2011). The mutant combinations were sequence validated, introduced into the pACT-HAB1 Y190 reporter strain and then tested for responsiveness to a range of compound concentrations (100, 50, 25, 10, 1, 0.2, 0.1 or 0 μM each test compound). These efforts yielded double mutant receptor variants with improved sensitivity for the 4 compound/receptor pairs examined (see entries labeled “Combinatorial Mutagenesis Screen I” in Table 1).
# PYR1 K59R E94A Y120A = biological target: T30, PYR1 K59R E94A Y120A (Arabidopsis thaliana, UniProt O49686, E94A/K59R/Y120A); test: as above
# T30 construct: expressed in transfected cells; host or cells: S. cerevisiae Y190 two-hybrid reporter strain
# T30 sequence (O49686 whole entry K59R/E94A/Y120A): as the sequence (O49686 whole entry K59R/L87P) above, with P87L, E94A, Y120A counted along it
# T30 sequence (Q9CAJ0 23-511 partner): as the sequence (Q9CAJ0 23-511 partner) above
# From the text: as §2
# PYR1 K59R Y120A E141Y = biological target: T31, PYR1 K59R Y120A E141Y (Arabidopsis thaliana, UniProt O49686, E141Y/K59R/Y120A); test: as above
# T31 construct: expressed in transfected cells; host or cells: S. cerevisiae Y190 two-hybrid reporter strain
# From the text: as §2
# PYR1 K59R Y120A N167C = biological target: T32, PYR1 K59R Y120A N167C (Arabidopsis thaliana, UniProt O49686, K59R/N167C/Y120A); test: as above
# T32 construct: expressed in transfected cells; host or cells: S. cerevisiae Y190 two-hybrid reporter strain
# From the text: as §2
# T1 sequence (O49686 whole entry K59R/A160C): as the sequence (O49686 whole entry K59R/L87P) above, with P87L, A160C counted along it
# T1 sequence (Q9CAJ0 23-511 partner): as the sequence (Q9CAJ0 23-511 partner) above
structure (smiles),measurement,setting,value
"N#Cc1c[nH]cc1-c1cccc2c1OC(F)(F)O2 [Fludioxonil, fludioxonil]",Threshold,PYR1 K59R A160C,100 µM
same,Threshold,PYR1 K59R E141Y,100 µM
same,Threshold,PYR1 K59R E94A,1 µM
same,Threshold,PYR1 K59R E94D,100 µM
same,Threshold,PYR1 K59R E94S,100 µM
same,Threshold,PYR1 K59R F108L,100 µM
same,Threshold,PYR1 K59R F159A,100 µM
same,Threshold,PYR1 K59R F159T,100 µM
same,Threshold,PYR1 K59R F159V,100 µM
same,Threshold,PYR1 K59R L87F,100 µM
same,Threshold,PYR1 K59R L87P,100 µM
same,Threshold,PYR1 K59R M158C,100 µM
same,Threshold,PYR1 K59R M158I,100 µM
same,Threshold,PYR1 K59R M158T,100 µM
same,Threshold,PYR1 K59R M158V,100 µM
same,Threshold,PYR1 K59R N167C,100 µM
same,Threshold,PYR1 K59R N167H,100 µM
same,Threshold,PYR1 K59R N167V,100 µM
same,Threshold,PYR1 K59R S92F,100 µM
same,Threshold,PYR1 K59R T162W,100 µM
same,Threshold,PYR1 K59R V164K,100 µM
same,Threshold,PYR1 K59R V81I,100 µM
same,Threshold,PYR1 K59R V81Y,100 µM
same,Threshold,PYR1 K59R V83L,100 µM
same,Threshold,PYR1 K59R Y120A,100 µM
same,Threshold,PYR1 K59R Y120F,100 µM
same,Threshold,PYR1 K59R Y120G,100 µM
same,Threshold,PYR1 K59R Y120M,100 µM
same,Threshold,PYR1 K59R E94A N167C,10 µM
same,Threshold,PYR1 K59R E94A Y120A,10 µM
same,Threshold,PYR1 K59R Y120A E141Y,10 µM
same,Threshold,PYR1 K59R Y120A N167C,10 µM
